In brackets after ≈: the same amount, converted by molar mass. Structures can show the parent of a compound that is named as a salt.
Assays:
Format in all cases: cell-based
[1] = system: Salmonella cholerasuis NCTC 5735; assay: Antibacterial activity, 50% inhibition of growth, Salmonella cholerasuis NCTC 5735; conditions: NCTC5735, read-out: IC50 (concentration required for a 50% inhibition of growth)
Source text: (§1) In the table below the antibacterial activity of the compound of Example 1, the 6-[4'-(3"-aminopropyl)-1'-piperidyl-methyleneamino]penicillanic acid hydrochloride, in the table called EB 686, is compared to that of the known compounds Ampicillin and Mecillinam (a compound of the above mentioned British Pat. No. 1,293,590).
(§2) *IC50 means the concentration required for a 50% inhibition of […]

E.coli HA 2 Leo strain = assay: Antibacterial activity, 50% inhibition of growth, E.coli HA 2 Leo strain; conditions: Escherichia coli, HA2LEOSTRAIN, read-out: IC50 (concentration required for a 50% inhibition of growth)
Source text: as §1, §2

E.coli W3110 (RTEM) = assay: Antibacterial activity, 50% inhibition of growth, E.coli W3110 (RTEM); conditions: Escherichia coli, read-out: IC50 (concentration required for a 50% inhibition of growth)
Source text: as §1, §2

[2] = system: Pseudomonas aeruginosa PS 18s; assay: Antibacterial activity, 50% inhibition of growth, Pseudomonas aeruginosa PS 18s; conditions: PS18S, read-out: IC50 (concentration required for a 50% inhibition of growth)
Source text: as §1, §2

[3] = system: Pseudomonas aeruginosa BA 2 Leo strain; assay: Antibacterial activity, 50% inhibition of growth, Pseudomonas aeruginosa BA 2 Leo strain; conditions: BA2LEOSTRAIN, read-out: IC50 (concentration required for a 50% inhibition of growth)
Source text: as §1, §2

[4] = system: Klebsiella pneumoniae AT CC 10273; assay: Antibacterial activity, 50% inhibition of growth, Klebsiella pneumoniae AT CC 10273; conditions: ATCC10273, read-out: IC50 (concentration required for a 50% inhibition of growth)
Source text: as §1, §2

[5] = system: Enterobacter cloacae P 99; assay: Antibacterial activity, 50% inhibition of growth, Enterobacter cloacae P 99; conditions: P99, read-out: IC50 (concentration required for a 50% inhibition of growth)
Source text: as §1, §2

[6] = system: Salmonella typhimurium NCTC 5710; assay: Antibacterial activity, 50% inhibition of growth, Salmonella typhimurium NCTC 5710; conditions: Salmonella enterica, read-out: IC50 (concentration required for a 50% inhibition of growth)
Source text: as §1, §2

| Compound | IC50 [1] [µg/mL] | IC50 (E.coli HA 2 Leo strain) [µg/mL] | IC50 (E.coli W3110 (RTEM)) [µg/mL] | IC50 [2] [µg/mL] | IC50 [3] [µg/mL] | IC50 [4] [µg/mL] | IC50 [5] [µg/mL] | IC50 [6] [µg/mL] |
| --- | --- | --- | --- | --- | --- | --- | --- | --- |
| CC1(C)S[C@@H]2[C@H](N=CN3CCC(CCCN)CC3)C(=O)N2[C@H]1C(=O)O [EB 686, 6-[4'-(3"-aminopropyl)-1'-piperidyl-methyleneamino]-penicillanic acid monohydrochloride] | 0.0063 | 0.016 | 0.5 | 5 | 16 | 0.04 | 0.02 | 0.016 |
| CC1(C)S[C@@H]2[C@H](N=CN3CCC(CCCN=[N+]=[N-])CC3)C(=O)N2[C@H]1C(=O)O [Example 1D, 6-[4'-(3"-azidopropyl)-1'-piperidyl-methyleneamino]-penicillanic acid] | – | 0.04 (≈ 0.101 µM) | – | – | – | – | – | 0.5 (≈ 1.27 µM) |
| CC1(C)S[C@@H]2[C@H](N=CN3CCC(CN=[N+]=[N-])CC3)C(=O)N2[C@H]1C(=O)O [Example 2D, 6-[4'-azidomethyl-1'-piperidyl-methyleneamino]-penicillanic acid] | – | 0.05 (≈ 0.136 µM) | – | – | – | – | – | 0.2 (≈ 0.546 µM) |
| CC1(C)S[C@@H]2[C@H](/N=C/N3CCCCCC3)C(=O)N2[C@H]1C(=O)O [Mecillinam] | 0.05 (≈ 0.154 µM) | 0.016 (≈ 0.0492 µM) | 2 (≈ 6.15 µM) | > 100 | > 100 | ~1 (≈ 3.07 µM) | 0.1 (≈ 0.307 µM) | 0.05 (≈ 0.154 µM) |
| CC(C)(C)C(=O)OCOC(=O)[C@@H]1N2C(=O)[C@@H](N=CN3CCCC(C(CN)CN)CC3)[C@H]2SC1(C)C (stereo partly shown) [Example 28F, Pivaloyloxymethyl 6-[(4'-(1",3"-diaminopropyl-2")-hexahydro-1'H-azepin-1'-yl)-methyleneamino]-penicillanate, trihydrochloride] | – | 0.05 | – | – | 20 | – | – | 0.05 |
| CC1(C)S[C@@H]2[C@H](NC(=O)[C@H](N)c3ccccc3)C(=O)N2[C@H]1C(=O)O [Ampicillin] | 0.25 (≈ 0.715 µM) | 1.3 (≈ 3.72 µM) | > 100 | 50 (≈ 143 µM) | > 100 | 79 (≈ 226 µM) | > 100 | 0.4 (≈ 1.14 µM) |
